Series [1] relates to PC-9/GR cells. Nature of the series: Apoptosis by flow cytometry (Annexin V-FITC/PI), PC-9/GR. It counts as cell-based, human. As to conditions: low-dose BH (4, 8 μM), gefitinib 25 μM, alone or combined. The method, then: After being digested with trypsin without EDTA, the cells were washed gently with culture medium and twice with cold PBS. The pellet was resuspended in 400 μl of 1× binding buffer, the resuspended cells were transferred to flow tubes, then Annexin V-FITC (5 μl) and propidium iodide (10 μl) were added, and the mixture was incubated for 15 min at room temperature in the dark. The percentage of apoptotic cells was determined by flow cytometry (Backman, CA, USA) and FlowJo V10 software.

Series [2] relates to PC-9/GR xenografts. The experiment in a line: PC-9/GR xenografts in BALB/c nude mice. As to conditions: BH 2.5 mg/kg, gefitinib 25 mg/kg, alone or co-administered, intragastric. The class given is in vivo.
Series [3] can be described thus: Toxicity study in nude mice: organ index, blood routine, serum biochemistry. It counts as in vivo. The method, then:
At the end of the experiment, blood samples were taken and analyzed by blood routine. […] The lungs and spleen were weighed and recorded. H&E staining of the heart, liver, spleen, lungs, and kidneys was performed to evaluate the cytotoxic effects of BH.

The subject of series [4] is A549 cells. Nature of the series: cells. It counts as cell-based, human. As to conditions: A549, 48 h; read-out: IC50 (48 h). How it is done: (§1) The human NSCLC cell lines (A549, PC-9, and PC-9/GR) and other cell lines (16HBE and LO2) were purchased from the American Type Culture Collection (ATCC, Manassas, VA, USA). […] All cell lines were cultivated at 37°C under 5% CO2.
(§2) The Cell Counting Kit-8 assays (Beyotime, Shanghai, China) were performed to assess cell viability. […] Microplate readers (Infinite F500, Tecan, Mannedorf, Switzerland) were used to measure the absorbance (A) at 450 nm. All samples were assessed in triplicate.

Series [5] concerns PC-9 cells. Nature of the series: cells. As to conditions: PC-9, 48 h; read-out: IC50. The class given is cell-based, human. The method, then:
as §1, §2

Series [6] relates to A549 cells. Nature of the series: Transwell migration and Matrigel invasion assays. It counts as cell-based, human. As to conditions: dose-dependent, 12 h treatment. How it is done: The Transwell insert in a 24-well plate (8 μm, Corning, NY, USA) was taken out, and a 600-μl medium containing 10% FBS was added to the bottom chamber. The A549 cells were resuspended with 10% FBS culture medium, and the diluted cell suspension (3 × 10^5/300 μl) was cultured in the top chamber and then incubated with or without Matrigel (BD BioCoat). After 12 h, the medium in the top chamber was changed to RPMI-1640 without FBS, and BD or BH with different concentrations was added ([31]). After an additional 12 h, the cells that migrated or invaded the bottom side of the polycarbonate film were fixed with methanol for 30 min and then stained for 15 min with 0.1% crystal violet (Solarbio), after which their number was assessed under a microscope (×4, Nikon).

Series [7] deals with 16HBE cells. The experiment in a line: Toxicity to normal human cell line 16HBE (Figure S1). The class given is cell-based. How it is done:
(§3) Figure S1. The toxicity of Bruceine H (BH) and Bruceine D (BD) to 16HBE (A) and LO2 (B) cells was evaluated.

The subject of series [8] is LO2 cells. The experiment in a line: Toxicity to normal human cell line LO2 (Figure S1). The class given is cell-based. The method, then: as §3
Where [9] appears, read: nude mice serum, mean ± SD (Table S4).
Setting [10] is: nude mice, routine blood (Table S3).

`COc1cc2ncnc(Nc3ccc(F)c(Cl)c3)c2cc1OCCCN1CCOCC1` [Gef, Gefitinib, reference compound]: the “apoptosis of PC-9/GR cells” value in series [1] is “little effects”. Also, the “tumor growth of PC-9/GR xenografts” value in series [2] was “slight inhibitory effect”. In addition, in series [3] (setting [9]), the HDL-C is listed as 0.74 ± 0.28 mmol/L, the LDL-C is listed as 0.89 ± 0.45 mmol/L, the TC was determined as 3.49 ± 0.56 mmol/L and the TG was determined as 0.74 ± 0.16 mmol/L. In series [3] (setting [10]), the GR is listed as 4.593±2.519 ×10^9/L, the “GR (%)” value was determined as 83.467±4.674%, the HCT worked out at 50.933±6.123% and the HGB amounted to 148.667 ± 17.616 g/L. In addition, in series [3] (setting [10]), the LY was 1.017±0.533 ×10^9/L, the “LY (%)” value came out at 14.2±2.685%, the MCH worked out at 15.367 ± 0.306 pg and the MCHC amounted to 292 ± 2.646 g/L. In addition, in series [3] (setting [10]), the MO is 0.213±0.274 ×10^9/L, the “MO (%)” value is reported as 5.067±1.582%, the MPV stood at 6.933 ± 0.351 fL and the PCT worked out at 0.653±0.110 mL/L. In addition, in series [3] (setting [10]), the PLT is given as 934.333±117.1 ×10^9/L, the RBC is listed as 9.687±1.162 ×10^12/L and the WBC is listed as 6.483±1.439 ×10^8/L.

By IC50 is commonly meant the concentration that inhibits the measured activity by half. Regarding `CC1=CC(=O)[C@@H](O)[C@]2(C)[C@H]3[C@@H](O)[C@H](O)[C@@]4(C)OC[C@@]35[C@@H](C[C@@H]12)OC(=O)[C@H](O)[C@]54O` [BD, bruceine D, reference compound], the IC50 in series [4] amounted to 26.8 µM; in series [5], 21.8 µM. The “Transwell migration and invasion of A549” value in series [6] is “significant anti-invasive and antimigratory actions”. The “toxicity to 16HBE cells” value in series [7] is recorded as “higher sensitivity”. Further, in series [8], the “toxicity to LO2 cells” value is “higher sensitivity”.

The record behind these values is PMC9024338, “Bruceine H Mediates EGFR-TKI Drug Persistence in NSCLC by Notch3-Dependent β-Catenin Activating FOXO3a Signaling” (Frontiers in Oncology, 2022).
